According to patent publication US8470769B2, “Method of treatment of bacterial infection by administration of poly-lysine” (priority 2004, dated 2013):

Tests used:
[1] = system: Trichophyton rubrum (NCPF 335); assay: Fungal growth sensitivity assay (absorbance at 540 nm); format: cell-based
Method: (§1) Trichophyton interdigitale (NCPF 117) and Trichophyton rubrum (NCPF 335) strains were obtained from the National Collection of Pathogenic Fungi, Bristol and maintained in culture by transfer at approximately monthly intervals on slopes of Sabuoraud's agar and Potato Dextrose Agar at 30° C. Candida albicans strain 3179 (obtained from the National Collection of Type Cultures [NCTC], Colindale) was maintained in Oxoid Mueller Hinton Broth at 37° C. Streptococcus pyogenes strain 8198, Staphylococcus aureus strain 10642 (methicillin-resistant), and E. coli 0157 strain 12900 were obtained from the NCTC, Colindale and maintained in Oxoid Mueller Hinton Broth at 37° C.
To determine the sensitivity of fungal strains to each of the test peptides, their impact on fungal growth was assessed as follows. Suspensions of T. interdigitale and T. rubrum conidia and hyphal fragments were prepared by adding 10 ml of fresh Nutrient Glucose Broth (NGB) (Oxoid Nutrient broth containing 2% w/v glucose) to a slope culture and agitating with a spatula. The resulting conidial/hyphal fragment suspension was filtered through 2 layers of sterile surgical gauze to remove large hyphal mats and pieces of agar. 20 μl of this suspension (absorbance at 540 nm around 0.1, corresponding to approx 10^6 propagules/ml) was inoculated into each well of sterile, 96 well microtitre plates to which a total volume 80 μl of nutrient medium (NGB) and the appropriate amount of peptide solution had previously been added. Control wells were those in which the final assay volume of 100 μl was made up with NGB medium alone, plus solvent (if applicable and at the same concentration as the peptide samples if so). […]

[2] = system: Trichophyton interdigitale (NCPF 117); assay: as above; format: cell-based
Method: as §1
To determine the sensitivity of fungal strains to each of the test peptides, their impact on fungal growth was assessed as follows. Suspensions of T. interdigitale and T. rubrum conidia and hyphal fragments were prepared by adding 10 ml of fresh Nutrient Glucose Broth (NGB) (Oxoid Nutrient broth containing 2% w/v glucose) to a slope culture and agitating with a spatula. The resulting conidial/hyphal fragment suspension was filtered through 2 layers of sterile surgical gauze to remove large hyphal mats and pieces of agar. 20 μl of this suspension (absorbance at 540 nm around 0.1, corresponding to approx 10^6 propagules/ml) was inoculated into each well of sterile, 96 well microtitre plates to which a total volume 80 μl of nutrient medium (NGB) and the appropriate amount of peptide solution had previously been added. Control wells were those in which the final assay volume of 100 μl was made up with NGB medium alone, plus solvent (if applicable and at the same concentration as the peptide samples if so). Fungal growth within the plates was monitored by absorbance at 540 nm in a Microtek plate reader after 24 h, 4 day and 7 day incubations at 30° C.

[3] = system: E. coli 0157 strain 12900; assay: Bacterial survival assay; format: cell-based, Escherichia coli; conditions: range of concentrations; 3 h of exposure; dose dependent (FIG. 7)
Method: (§2) Streptococcus pyogenes strain 8198, Staphylococcus aureus strain 10642 (methicillin-resistant), and E. coli 0157 strain 12900 (all obtained from the NCTC, Colindale) were grown for 18-24 h then stored at 4° C. prior to use. Fresh cultures grown overnight were centrifuged at 2000×g for 10 min and washed with fresh Mueller Hinton Broth. Sensitivity to each of the four peptides was assayed as per C. albicans described above. For E. coli and S. aureus, the starting number of cells for the peptide sensitivity assay was 10^8/ml and the medium used for enumeration was Nutrient Agar (Oxoid). Str. pyogenes grew less well than the other strains on Mueller Hinton agar and so the starting number of cells for these assays was lower than that for the other strains, at 10^6/ml. Str. pyogenes survival was determined using Oxoid Tryptose Soya Agar in place of Nutrient Agar.
(§3) Three clinically relevant bacterial pathogens, E. coli 0157, methicillin-resistant Staphylococcus aureus (MRSA) and Streptococcus pyogenes, were exposed, as described previously in the materials and methods section, to a range of concentrations of peptide 4. After a period of 3 h, samples of each bacterial culture were transferred to appropriate solid phase growth media plates and the numbers of viable colonies in control (growth medium only) and treated (growth medium containing peptide 4) samples assessed after 18-24 h.

[4] = system: Candida albicans strain 3179; assay: Candida albicans survival assay (viable counts); format: cell-based; conditions: for Survival of Candida albicans, antifungal activity compared with poly-L-lysine: 100 μg/ml, 1 mg/ml and 10 mg/ml, 2 hours at 37° C. (FIG. 19)
Method: as §1
To determine the sensitivity of fungal strains to each of the test peptides, their impact on Candida survival was assessed as follows. C. albicans cultures were grown for 18-24 h then stored at 4° C. prior to use. Fresh cultures grown overnight were centrifuged at 2000×g for 10 min and washed with fresh Mueller Hinton Broth, adjusting the number of viable cells to between 5×10^6 and 1×10^7/ml. Assay buffer was prepared by adding 100 μl of NGB medium to 6.9 ml of 10 mM sodium phosphate buffer, pH 7.7. 35 μl of assay buffer with or without a range of peptide concentrations was added to a sterile polypropylene screw-capped vial and 15 μl of the Candida albicans inoculum described above was added. The vials were incubated at 37° C. in a water bath for 2 h, and the number of Candida spp. surviving was determined by serial dilution in sterile phosphate buffered saline (PBS) and plating out onto 9 cm Petri dishes containing Oxoid Sabouraud's Agar (20 ml). Counts were made after incubation of these plates at 37° C. for 18-24 h.

[5] = system: Staphylococcus aureus strain 10642 (methicillin-resistant); assay: Bacterial survival assay; format: cell-based; conditions: range of concentrations; 3 h of exposure; dose dependent (FIG. 7)
Method: as §2, §3

[6] = system: Streptococcus pyogenes strain 8198; assay: Bacterial survival assay; format: cell-based; conditions: range of concentrations; 3 h of exposure; dose dependent (FIG. 7)
Method: as §2, §3

[7] = system: Candida albicans strain 3179; assay: Candida albicans growth by optical density (absorbance at 540 nm); format: cell-based; conditions: 50 or 100 and 300 or 500 μg/ml peptide; 24 h and 48 h; time and dose-dependent (FIG. 4)
Method: as §1
The yeast Candida albicans was cultured, as described previously in the materials and methods section, in growth medium alone (control cultures) or in growth medium containing 50 μg/ml or 100 μg/ml and 300 μg/ml or 500 μg/ml of peptide 1, 2, 3 or 4. Growth of C. albicans was assessed by measuring optical density (absorbance at 540 nm) after 24 h (FIG. 4a) and 48 h (FIG. 4b) in culture. […] In a separate experiment, C. albicans survival was assessed after 18-24 h in cultures grown in medium alone (controls) or those including a range of concentrations of peptide 4 spanning 1 μg/ml to 1000 μg/ml (FIG. 6).

[8] = 3 concentrations of Peptide 4, no acetic acid, 96 hours at 30° C. (FIG. 9)
[9] = no acetic acid, 96 hours at 30° C. (FIG. 13)
[10] = 100 μg/ml, no acetic acid, 96 hours at 30° C. (FIG. 15)
[11] = 3 concentrations, no acetic acid, 96 hours at 30° C. (FIG. 14)

L-Arginine trimer [RRR]
Activity against T. rubrum compared among the trimers ([1]; 2 mg/ml of each trimer, 96 hours at 30° C. (FIG. 16)): most active peptide
Growth of T. rubrum (OD, percentage of the growth in the untreated culture) ([1]; 2 mg/ml of trimer, 96 hours at 30° C. (FIG. 16)): significant reduction in growth

CC(=O)O [acetic acid]
Growth of T. rubrum (OD) ([1]; 0.01% acetic acid alone, 3 days in culture (FIG. 8)): no significant effect
Growth of T. interdigitale ([2]; 0.5% acetic acid, 96 hours at 30° C. (FIG. 11)): significant effect

Peptide 4: peptide of FIG. 1 (SEQ ID NO: 10); highly cationic peptide comprising lysine and arginine residues (KRKRKRKCRKRKRRCRKRKCKRKRKRKRKCRKRKRKCCRRKK)
Survival of E. coli 0157 (viable colonies) [3]: significantly inhibited survival
Growth of T. rubrum (optical density, absorbance at 540 nm) ([1]; 50 μg/ml peptide, day 4 and 7, 0.5% acetic acid as solvent, compared to un-treated control (FIG. 3)): significantly inhibited
Growth of T. rubrum (OD) ([1]; 1 mg/ml peptide 4 alone, 3 days in culture (FIG. 8)): inhibited T. rubrum growth
Growth of T. rubrum (OD) [1, 8]: inhibitory effect
Survival of C. albicans (viability counts) ([4]; 1 μg/ml to 1000 μg/ml, after 24 h in culture (FIG. 6)): decreased in a dose-dependent manner
Survival of C. albicans at high salt concentrations ([4]; range of Peptide 4 concentrations, two concentrations of NaCl, 2 h incubation at 37° C. (FIG. 18)): Significant killing activity
Effect of salts on fungicidal activity against C. albicans ([4]; two concentrations of NaCl, 2 h incubation at 37° C. (FIG. 18)): not inhibited by salts
Growth of T. interdigitale (optical density, absorbance at 540 nm) ([2]; 50 μg/ml peptide, day 4 and 7, 0.5% acetic acid as solvent, compared to un-treated control (FIG. 2)): significantly inhibited
Growth of T. interdigitale (OD) [2, 8]: inhibitory effect
Growth of T. interdigitale (OD) ([2]; 7 days, no acetic acid solvent (FIG. 10)): significantly inhibit fungal growth
Effect of salt concentrations on antifungal activity towards T. interdigitale ([2]; Peptide 4 1.2 mg/ml, NaCl 100 mM to 500 mM, no acetic acid, 96 h at 30° C. (FIG. 17)): not affected
Peptide concentration at which growth of T. interdigitale was inhibited ([2]; no acetic acid, 96 hours at 30° C. (FIG. 9)): 0.55 mg/mL
Survival of methicillin-resistant Staphylococcus aureus (MRSA) (viable colonies) [5]: significantly inhibited survival
Survival of Streptococcus pyogenes (viable colonies) [6]: significantly inhibited survival
Growth of C. albicans (optical density, absorbance at 540 nm) [7]: significantly inhibited C. albicans growth

Poly-L-lysine-HCl 15,000-30,000Da (100-200aa) [pK100-200]
Growth of T. rubrum [1, 9]: inhibited the growth
Growth of T. interdigitale ([2]; between 1 mg/ml and 50 μg/ml, no acetic acid, 96 hours at 30° C. (FIG. 12)): inhibited growth at all concentrations tested

Poly-L-arginine-HCl 5,000-15,000 (28-86aa) [pR28-86]
Growth of T. rubrum (OD) [1, 10]: loss of activity
Growth of T. rubrum ([1]; 1 mg/ml, no acetic acid, 96 hours at 30° C. (FIG. 13)): totally inhibiting growth
Concentration down to which active against T. rubrum [1, 11]: 0.55 mg/mL
Inhibitory impact against T. rubrum compared with poly-L-Lysine ([1]; equivalent doses, no acetic acid, 96 hours at 30° C. (FIG. 13)): more active
Growth of T. rubrum [1, 9]: inhibited the growth
Survival of Candida albicans, antifungal activity compared with poly-L-lysine [4]: increased antifungal activity
Growth of T. interdigitale (OD) [2, 10]: loss of activity
Concentration down to which active against T. interdigitale [2, 11]: 0.55 mg/mL

Poly-D-lysine-HBr 4,000-15,000Da (27-100aa) [pKd27-100]
Survival of Candida albicans, antifungal activity compared with poly-L-lysine [4]: very similar antifungal activity to the poly-L-lysine
